The source of these data is patent US20120071516A1, “COMPOUNDS THAT MODULATE INTRACELLULAR CALCIUM” (CalciMedica, Inc., priority 2010, published 2012).

One assay concerns the target T1, Orai1/STIM1 (Homo sapiens, UniProt Q96D31).
T1 construct: c-myc (C); expressed in transfected cells
The experiment in a line: Fluorescence-based assay of store-operated calcium entry in Orai1/STIM1 stable cells. The assay is classed as cell-based. Also on record: key to Orai1/STIM1 (IC50, μmol): A ≦ 1.0 μmol; B > 1.0 μmol; -- = no fit. The note with it: HEK-293 cells stably expressing human STIM1 and Orai1, 50% inhibition of Peak-Basal fluo-4 signal, 30 minutes compound incubation; for IC50: read-out: Orai1/STIM1 (IC50, μmol). The method, then:
A. Fluorescence-Based Assay of Store-Operated Calcium Entry in Orail/STIM1 Stable Cells.
Cells stably expressing recombinant human STIM1 and Orail are generated by transfecting a human Orail expression plasmid (pcDNA3.1-Orail-cmyc) into HEK-293 cells stably overexpressing human STIM1 (Roos et al. 2005 JCB 169(3): 435-445). Colonies of cells stably expressing both STIM1 and Orail proteins are selected and then subcloned by limiting dilution. Cells were cultured at 37° C./6% CO2 in complete medium with 10% FBS and appropriate selection markers.
The day prior to performing the assay Orail/STIM1 stable cells are plated in 50 μL of complete medium at 90-95% confluence in a 384 well plate. Cells are grown at 37° C./6% CO2 overnight. On the day of the assay, 1.5 μM fluo-4-AM (Invitrogen) in complete medium is added to the cells, which are then incubated for 1 hour at RT. Cells are washed once in Ca^2+-free HBSS (Hank's buffered saline solution) and 35 μl of Ca^2+-free HBSS is added to each well. Test compounds are added to wells in a 10 μL Ca^2+-free HBSS solution, prepared at 4.5× the desired final concentration, and incubated for 30 minutes at RT. The initial baseline fluorescence signal is then measured with a FLIPR^384 (Molecular Devices) plate reader. Calcium entry is initiated by adding 5 μl of 10×CaCl2 (10 mM) in HBSS, and changes in cellular fluorescence are measured with the FLIPR^384 plate reader. In each well, the magnitude of the fluorescence signal as a result of calcium entry into the cell is determined by calculating the difference between the peak fluorescence signal measured after calcium addition and the initial baseline fluorescence signal (designated Peak-Basal). IC50 values are typically calculated as the concentration that inhibited 50% of the Peak-Basal signal (Table A).

A further assay has as its system RBL-2H3 cells. The experiment in a line: Fluorescence-based assay of store-operated calcium entry in RBL-2H3 cells. To be noted: Rattus norvegicus, thapsigargin, 50% inhibition of Upslope (7 seconds after calcium addition), read-out: RBL-2H3 (IC50, μmol). Type of assay: cell-based. The method, then:
B. Fluorescence-Based Assay of Store-Operated Calcium Entry in RBL-2H3 Cells.
RBL-2H3 cells are obtained from ATCC and maintained in complete medium with 10% FBS at 37° C./6% CO2.
The day prior to performing the assay, RBL-2H3 cells are plated in 50 μL of complete medium in a 384 well plate. Cells are grown at 37° C./6% CO2 overnight and grow to 50-60% confluence by the next day. On the assay day, 1.5 μM Fluo-4-AM dye (Invitrogen) in complete medium is added and incubated for 1 hour at RT. Cells are washed twice in Ca^2+-free HBSS buffer and 35 μL Ca^2+-free HBSS buffer is added to each well. 10 μL of a test compound prepared in a Ca^2+-free HBSS solution at 4.5× of the desired concentration is added to a well and incubated for 5 minutes at RT. 10 μL of thapsigargin prepared in a Ca^2+-free HBSS solution at 5.5× of the desired concentration (5.5 uM) is added to each well and incubated for an additional 25 minutes. The initial baseline fluorescence signal is measured with a FLIPR^384 (Molecular Devices) plate reader. 5 μL of 12× calcium in HBSS (12 mM) is added and changes in cellular fluorescence are measured with the FLIPR^384 plate reader. In each well, the change in the fluorescent signal as a function of time due to calcium entry into the cell is determined by calculating the difference between the fluorescent signal measured 7 seconds after calcium addition and the initial baseline fluorescence signal at time zero (t=0). This parameter is designated Upslope. The IC50 value is calculated as the concentration at which 50% of the Upslope is inhibited.

In assay [1] the target is STIM1 and Orail in HEK293 cells (Homo sapiens, UniProt Q96D31). The note with it: HEK293 cells co-expressing STIM1 and Orai1; cited from earlier work.
Chain of STIM1 and Orail in HEK293 cells (Q96D31 whole entry): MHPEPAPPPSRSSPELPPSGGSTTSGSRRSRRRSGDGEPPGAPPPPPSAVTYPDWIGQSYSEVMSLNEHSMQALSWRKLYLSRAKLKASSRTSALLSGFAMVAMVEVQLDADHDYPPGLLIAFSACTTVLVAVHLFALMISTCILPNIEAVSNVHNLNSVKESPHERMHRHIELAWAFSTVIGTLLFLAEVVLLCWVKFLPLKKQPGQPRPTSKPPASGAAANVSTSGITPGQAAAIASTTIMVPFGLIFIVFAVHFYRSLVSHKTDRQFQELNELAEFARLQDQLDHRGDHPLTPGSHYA
The subject of the next assay is Jurkat cells. To be noted: Jurkat cells and colon cancer cells; cited from earlier work.

Molecules are shown by their SMILES.

T1 sequence (Q96D31 whole entry): as above

Consider `Cn1nc(C(F)(F)F)cc1-c1ccc(C(=O)Nc2ccccc2F)[se]1`, for which the IC50 on Orai1/STIM1 and in the assay on RBL-2H3 cells was no more than 1000 nM in each case.

As for `Cn1nc(C(F)(F)F)cc1-c1ccc(C(=O)Nc2c(F)cccc2F)[se]1`, the IC50 on Orai1/STIM1 and with RBL-2H3 cells was no more than 1000 nM throughout. `Cn1nc(C(F)(F)F)cc1-c1ccc(C(=O)Nc2ccncc2F)[se]1`: the IC50 on Orai1/STIM1 and in the assay with RBL-2H3 cells was no more than 1000 nM in each case. As to `Cn1nc(-c2ccccc2F)cc1-c1ccc(C(=O)Nc2ccccc2F)[se]1`, the IC50 on Orai1/STIM1 and in the assay with RBL-2H3 cells was no more than 1000 nM throughout.

For `Cn1nc(-c2ccccc2F)cc1-c1ccc(C(=O)Nc2c(F)cccc2F)[se]1`, the IC50 at Orai1/STIM1 and in the assay on RBL-2H3 cells was no more than 1000 nM throughout. For the compound `Cn1nc(-c2ccccc2F)cc1-c1ccc(C(=O)Nc2ccncc2F)[se]1`, the IC50 on Orai1/STIM1 and in the assay on RBL-2H3 cells was no more than 1000 nM each time. In the case of `Cn1nc(-c2ccco2)cc1-c1ccc(C(=O)Nc2ccccc2F)[se]1`, the IC50 at Orai1/STIM1 and in the assay with RBL-2H3 cells was no more than 1000 nM in each case. On to `Cn1nc(-c2ccco2)cc1-c1ccc(C(=O)Nc2c(F)cccc2F)[se]1`, for which the “Orai1/STIM1 (IC50, μmol)” value on Orai1/STIM1 is recorded as “--”. The IC50 in the assay on RBL-2H3 cells is greater than 1000 nM. In the case of `Cn1nc(-c2ccco2)cc1-c1ccc(C(=O)Nc2ccncc2F)[se]1`, the IC50 on Orai1/STIM1 and in the assay with RBL-2H3 cells was no more than 1000 nM throughout.

Consider `Cn1nc(-c2nccs2)cc1-c1ccc(C(=O)Nc2ccccc2F)[se]1`, for which the IC50 on Orai1/STIM1 and with RBL-2H3 cells was no more than 1000 nM each time. With `Cn1nc(-c2nccs2)cc1-c1ccc(C(=O)Nc2c(F)cccc2F)[se]1`, the IC50 on Orai1/STIM1 and in the assay on RBL-2H3 cells was no more than 1000 nM each time. Regarding `Cn1nc(-c2nccs2)cc1-c1ccc(C(=O)Nc2ccncc2F)[se]1`, the IC50 on Orai1/STIM1 and in the assay on RBL-2H3 cells was no more than 1000 nM each time. Turning to `O=C(Nc1ccncc1F)c1ccc(-c2cc(C(F)(F)F)ccc2Cl)[se]1`, the IC50 on Orai1/STIM1 and with RBL-2H3 cells was greater than 1000 nM in each case. Turning to `Cc1nc2cc(Cl)c(-c3ccc(C(=O)Nc4ccccc4F)[se]3)cc2o1`, the IC50 at Orai1/STIM1 and in the assay with RBL-2H3 cells was no more than 1000 nM in each case. Regarding `Cc1cc2scnc2cc1-c1ccc(C(=O)Nc2c(F)cccc2F)[se]1`, the IC50 at Orai1/STIM1 and with RBL-2H3 cells was no more than 1000 nM each time. In the case of `O=C(Nc1[se]cc(-c2ccc(Cl)cc2)c1C(=O)O)c1nc2ccccc2s1`, the IC50 at Orai1/STIM1 and with RBL-2H3 cells was greater than 1000 nM each time. Regarding `O=C(Nc1[se]cc(-c2ccc(Br)cc2)c1C(=O)O)c1nc2ccccc2s1`, the IC50 at Orai1/STIM1 was greater than 1000 nM; with RBL-2H3 cells it was no more than 1000 nM.

Take `O=C(Nc1[se]cc(-c2ccc(Br)cc2)c1C(=O)O)c1cc2ccccc2o1`: the IC50 at Orai1/STIM1 and with RBL-2H3 cells was no more than 1000 nM each time. Turning to `Cn1nc(C(F)(F)F)cc1-c1cnc(NC(=O)c2ccccc2F)[se]1`, the IC50 at Orai1/STIM1 and with RBL-2H3 cells was no more than 1000 nM each time. Consider `Cn1nc(C(F)(F)F)cc1-c1cnc(NC(=O)c2ccccc2Cl)[se]1`, for which the IC50 on Orai1/STIM1 and in the assay with RBL-2H3 cells was no more than 1000 nM in each case. Turning to `Cn1nc(C(F)(F)F)cc1-c1cnc(NC(=O)c2c(F)cccc2F)[se]1`, the IC50 on Orai1/STIM1 and in the assay with RBL-2H3 cells was no more than 1000 nM throughout. As for `CCn1nc(C(F)(F)F)cc1-c1cnc(NC(=O)c2ccccc2F)[se]1`, the IC50 at Orai1/STIM1 and with RBL-2H3 cells was no more than 1000 nM in each case. With `Cn1nc(-c2ccccc2F)cc1-c1cnc(NC(=O)c2ccccc2F)[se]1`, the values for the IC50 on Orai1/STIM1 and in the assay with RBL-2H3 cells were greater than 1000 nM and no more than 1000 nM, respectively. In the case of `Cc1ccccc1-c1cnc(NC(=O)c2ccccc2F)[se]1`, the IC50 at Orai1/STIM1 and in the assay on RBL-2H3 cells was no more than 1000 nM in each case. For the compound `Cc1ccccc1-c1cnc(NC(=O)c2ccccc2Cl)[se]1`, the IC50 on Orai1/STIM1 and with RBL-2H3 cells was no more than 1000 nM throughout.

Turning to `Cc1ccccc1-c1cnc(NC(=O)c2c(F)cccc2F)[se]1`, the IC50 at Orai1/STIM1 and in the assay with RBL-2H3 cells was no more than 1000 nM each time.

Take `Cc1ccc(F)cc1-c1cnc(NC(=O)c2ccccc2F)[se]1`: the IC50 at Orai1/STIM1 and in the assay with RBL-2H3 cells was no more than 1000 nM in each case. On to `Cc1ccc(Cl)cc1-c1cnc(NC(=O)c2ccccc2F)[se]1`, for which the IC50 at Orai1/STIM1 and in the assay on RBL-2H3 cells was no more than 1000 nM in each case. In the case of `O=C(Nc1ncc(-c2ccccc2C(F)(F)F)[se]1)c1ccccc1F`, the IC50 at Orai1/STIM1 and in the assay on RBL-2H3 cells was no more than 1000 nM each time. For the compound `Cc1cscc1-c1cnc(NC(=O)c2ccccc2F)[se]1`, the IC50 was greater than 1000 nM at Orai1/STIM1 and no more than 1000 nM with RBL-2H3 cells. On the same counts, the results for `Cc1cc2c(cc1-c1cnc(NC(=O)c3ccccc3F)[se]1)OC(F)(F)O2` are no more than 1000 nM and no more than 1000 nM.

Regarding `Cc1cc2c(cc1-c1cnc(NC(=O)c3c(F)cccc3F)[se]1)OC(F)(F)O2`, the IC50 on Orai1/STIM1 was greater than 1000 nM; in the assay with RBL-2H3 cells, no more than 1000 nM. In the case of `Cc1cc(OC(F)(F)F)ccc1-c1cnc(NC(=O)c2ccccc2F)[se]1`, the IC50 on Orai1/STIM1 and in the assay on RBL-2H3 cells was no more than 1000 nM throughout. Take `Cc1cc(OC(F)(F)F)ccc1-c1cnc(NC(=O)c2c(F)cccc2F)[se]1`: the “Orai1/STIM1 (IC50, μmol)” value at Orai1/STIM1 was “--”. Besides, in the assay with RBL-2H3 cells, the IC50 is no more than 1000 nM. Regarding `NCCOB(c1ccccc1)c1ccccc1` [2-aminoethoxydiphenylborate], the “block of store-operated Ca2+ entry” value in assay [1] is “completely blocked”. Turning to `Cc1nnsc1C(=O)Nc1ccc(-n2nc(C(F)(F)F)cc2C(F)(F)F)cc1` [BTP-2], in the assay with Jurkat cells, the “inhibition of SOCE” value is “inhibits” and the inhibition of proliferation entry was “inhibits”.
